Test results as given in patent US8765779B2, “Tricyclic derivatives and their pharmaceutical use and compositions” (Cephalon, Inc., priority 2009, dated 2014).
Structures can show the parent of a compound that is named as a salt.

| melting point | SMILES |
| --- | --- |
| 200 to 201 °C | N#Cc1cccc(COc2cccc(S(=O)(=O)c3ccc4c(c3)OC3CNCCC43)c2)c1 (stereo not drawn) (as salt: HCl) [Example 552] |
| 194 to 195 °C | N#Cc1ccccc1COc1cccc(S(=O)(=O)c2ccc3c(c2)OC2CNCCC32)c1 (stereo not drawn) (as salt: HCl) [Example 550] |
| 283 to 286 °C | CN(C)C(=O)c1c(F)cccc1S(=O)(=O)c1ccc2c(c1)OC1CNCCC21 (stereo not drawn) (as salt: HCl) [Example 476] |
| 224 to 225 °C | COc1cc(OCC2CC2)cc(S(=O)(=O)c2ccc3c(c2)OC2CNCCC32)c1 (stereo not drawn) (as salt: HCl) [Example 585] |
| 186 to 188 °C | O=S(=O)(c1cccc(OCC2CCOCC2)c1)c1ccc2c(c1)OC1CNCCC21 (stereo not drawn) (as salt: HCl) [Example 581, 7-{[3-(tetrahydro-2H-pyran-4-ylmethoxy)phenyl]sulfonyl}-1,2,3,4,4a,9a-hexahydro[1]benzofuro[2,3-c]pyridine] |
| 184 to 186 °C | O=S(=O)(c1cccc(OC2CCOCC2)c1)c1ccc2c(c1)OC1CNCCC21 (stereo not drawn) (as salt: HCl) [Example 571] |
| 199 to 201 °C | CCCCCOc1cccc(S(=O)(=O)c2ccc3c(c2)OC2CNCCC32)c1 (stereo not drawn) (as salt: HCl) [Example 557] |
| 263 to 266 °C | O=S(=O)(c1cccc(OCC(F)F)c1)c1ccc2c(c1)OC1CNCCC21 (stereo not drawn) (as salt: HCl) [Example 578] |
| 185 to 187 °C | O=S(=O)(c1ccc2c(c1)OC1CNCCC21)c1cccc(OCC2CCOCC2)c1Cl (stereo not drawn) (as salt: HCl) [Example 485] |
| 210 to 213 °C | CCCOc1cccc(S(=O)(=O)c2ccc3c(c2)OC2CNCCC32)c1 (stereo not drawn) (as salt: HCl) [Example 572] |
| 171 to 172 °C | O=S(=O)(c1cc(F)cc(OCc2ccccc2)c1)c1ccc2c(c1)OC1CNCCC21 (stereo not drawn) (as salt: HCl) [Example 484] |
| 207 to 208 °C | COc1cc(OCC2CCOCC2)cc(S(=O)(=O)c2ccc3c(c2)OC2CNCCC32)c1 (stereo not drawn) (as salt: HCl) [Example 584] |
| 189 to 190 °C | N#CCCCCOc1cccc(S(=O)(=O)c2ccc3c(c2)OC2CNCCC32)c1 (stereo not drawn) (as salt: HCl) [Example 574] |
| > 200 °C (dec.) | CC(C)Oc1cccc(S(=O)(=O)c2ccc3c4c(oc3c2)C2(CCC2)NCC4)c1 (as salt: HCl) [Example 26, 7-{[3-(propan-2-yloxy)phenyl]sulfonyl}-3,4-dihydro-2H-spiro[1-benzofuro[2,3-c]pyridine-1,1′-cyclobutane]] |
| 205 to 206 °C | O=S(=O)(c1cccc(OCC2CCCO2)c1)c1ccc2c(c1)OC1CNCCC21 (stereo not drawn) (as salt: HCl) [Example 577] |
| 167 to 171 °C | O=S(=O)(c1cccc(OCc2cccnc2)c1)c1ccc2c(c1)OC1CNCCC21 (stereo not drawn) (as salt: HCl) [Example 559] |
| 248 to 251 °C | COc1cc(OC)cc(S(=O)(=O)c2ccc3c(c2)OC2CNCCC32)c1 (stereo not drawn) (as salt: HCl) [Example 480] |
| 206 to 208 °C | CCCCOc1cccc(S(=O)(=O)c2ccc3c(c2)OC2CNCCC32)c1 (stereo not drawn) (as salt: HCl) [Example 554] |
| 188 to 190 °C | O=S(=O)(c1cccc(OCC2CCOCC2)c1)c1ccc2c(c1)OC1CNCCC21 (stereo not drawn) (as salt: HCl) [Example 570, 7-{[3-(tetrahydro-2H-pyran-4-ylmethoxy)phenyl]sulfonyl}-1,2,3,4,4a,9a-hexahydro[1]benzofuro[2,3-c]pyridine] |
| 218 to 220 °C | COc1cc(OC2CCC2)cc(S(=O)(=O)c2ccc3c(c2)OC2CNCCC32)c1 (stereo not drawn) (as salt: HCl) [Example 583] |
| 247 to 248 °C | COc1cccc(COc2cccc(S(=O)(=O)c3ccc4c(c3)OC3CNCCC43)c2)c1 (stereo not drawn) (as salt: HCl) [Example 575] |
| 164 to 166 °C | COCCCOc1cc(OC(C)C)cc(S(=O)(=O)c2ccc3c(c2)OC2CNCCC32)c1 (stereo not drawn) (as salt: HCl) [Example 588] |
| 237 to 239 °C | NC(=O)COc1cccc(S(=O)(=O)c2ccc3c(c2)OC2CNCCC32)c1 (stereo not drawn) (as salt: HCl) [Example 563] |
| 244 to 245 °C | O=S(=O)(c1cccc(OCc2cnccn2)c1)c1ccc2c(c1)OC1CNCCC21 (stereo not drawn) (as salt: HCl) [Example 567] |
| 182 to 185 °C | O=S(=O)(c1cccc(OCc2ccncc2)c1)c1ccc2c(c1)OC1CNCCC21 (stereo not drawn) (as salt: HCl) [Example 561] |

Continued, compound first:

| SMILES | melting point |
| --- | --- |
| CC12CCNCC1Oc1cc(S(=O)(=O)c3cccc(F)c3F)ccc12 (stereo not drawn) (as salt: HCl) [Example 488] | 202 to 204 °C |
| COc1cc(OC)cc(S(=O)(=O)c2ccc3c(c2)OC2CNCCC32C)c1 (stereo not drawn) (as salt: HCl) [Example 487] | 283 to 285 °C |
| CC(C)Oc1cccc(S(=O)(=O)c2ccc3c(c2)OC2CNCCC32C)c1 (single isomer, unassigned) (as salt: HCl) [Example 20, 4a-methyl-7-{[3-(propan-2-yloxy)phenyl]sulfonyl}-1,2,3,4,4a,9a-hexahydro[1]benzofuro[2,3-c]pyridine] | 184 to 185 °C |
| CN(C)C(=O)c1cccc(S(=O)(=O)c2ccc3c4c(oc3c2)CNCC4)c1 (as salt: hydrochloride) [Example 474, N,N-Dimethyl-3-(1,2,3,4-tetrahydro[1]benzofuro[2,3-c]pyridin-7-ylsulfonyl)benzamide hydrochloride] | 262 to 265 °C |
| CC(=O)NCC1(C)NCCc2c1oc1cc(S(=O)(=O)c3cccc(F)c3)ccc21 (stereo not drawn) (as salt: HCl) [Example 631, N-({7-[(3-fluorophenyl)sulfonyl]-1-methyl-1,2,3,4-tetrahydro[1]benzofuro[2,3-c]pyridin-1-yl}methyl)acetamide] | 217 to 227 °C |
| CC1(C)CNC2(CCOCC2)c2oc3cc([S+]([O-])c4cccc(F)c4)ccc3c21 (racemic) (as salt: HCl) [Example 47, 7-[(3-fluorophenyl)sulfinyl]-4,4-dimethyl-2′,3,3′,4,5′,6′-hexahydro-2H-spiro[1-benzofuro[2,3-c]pyridine-1,4′-pyran]] | 248 to 253 °C |
| CC(C)Oc1cccc(S(=O)(=O)c2ccc3c4c(oc3c2)C2(CCOCC2)NCC4)c1 (as salt: HCl) [Example 44, 7-{[3-(propan-2-yloxy)phenyl]sulfonyl}-2′,3,3′,4,5′,6′-hexahydro-2H-spiro[1-benzofuro[2,3-c]pyridine-1,4′-pyran]] | 250 °C (dec.) |
| COc1cc(OC)cc(S(=O)(=O)c2ccc3c(c2)OC2CNCCC32C)c1 (stereo not drawn) (as salt: HCl) [Example 490] | 250 to 252 °C |
| CC1(C)CNC(C2CCOCC2)c2oc3cc(S(=O)(=O)c4cccc(F)c4)ccc3c21 (racemic) (as salt: HCl) [Example 45, 7-[(3-fluorophenyl)sulfonyl]-4,4-dimethyl-1-(tetrahydro-2H-pyran-4-yl)-1,2,3,4-tetrahydro[1]benzofuro[2,3-c]pyridine] | 248 to 252 °C |
| O=S(=O)(c1ccc2c3c(oc2c1)C1(CCOCC1)NCC3)c1cccc(F)c1F (as salt: HCl) [Example 475] | 250 to 265 °C |
| CCOCC1NCCc2c1oc1cc(S(=O)(=O)c3cccc(F)c3)ccc21 (racemic) (as salt: HCl) [Example 33, 1-(ethoxymethyl)-7-[(3-fluorophenyl)sulfonyl]-1,2,3,4-tetrahydro[1]benzofuro[2,3-c]pyridine] | 230 to 250 °C (dec.) |
| COCC1(COC)NCCc2c1oc1cc(S(=O)(=O)c3cccc(F)c3)ccc21 (as salt: HCl) [Example 39, 7-[(3-fluorophenyl)sulfonyl]-1,1-bis(methoxymethyl)-1,2,3,4-tetrahydro[1]benzofuro[2,3-c]pyridine] | 196 to 198 °C |
| CCC1(C)NCCc2c1oc1cc(S(=O)(=O)c3cccc(F)c3)ccc21 (racemic) (as salt: HCl) [Example 27, 1-ethyl-7-[(3-fluorophenyl)sulfonyl]-1-methyl-1,2,3,4-tetrahydro[1]benzofuro[2,3-c]pyridine] | > 300 °C |
| O=S(=O)(c1cccc(F)c1)c1ccc2c3c(oc2c1)C1(CCCC1)NCC3 (as salt: HCl) [Example 28, 7-[(3-fluorophenyl)sulfonyl]-3,4-dihydro-2H-spiro[1-benzofuro[2,3-c]pyridine-1,1′-cyclopentane]] | > 250 °C |
| CC12CCNCC1Oc1ccc(S(=O)(=O)c3cc[n+]([O-])cc3)cc12 (racemic) (as salt: HCl) [Example 14, 4a-methyl-6-[(1-oxidopyridin-4-yl)sulfonyl]-1,2,3,4,4a,9a-hexahydro[1]benzofuro[2,3-c]pyridine] | 207 to 210 °C |
| CN(C)C(=O)CC1(C)NCCc2c1oc1cc(S(=O)(=O)c3cccc(F)c3)ccc21 (racemic) (as salt: HCl) [Example 40, 2-{7-[(3-fluorophenyl)sulfonyl]-1-methyl-1,2,3,4-tetrahydro[1]benzofuro[2,3-c]pyridin-1-yl}-N,N-dimethylacetamide] | 220 to 223 °C |
| CC1(C)NCCc2c1oc1cc(S(=O)(=O)c3ccc(F)c(Cl)c3)ccc21 (as salt: HCl) [Example 18, 7-[(3-chloro-4-fluorophenyl)sulfonyl]-1,1-dimethyl-1,2,3,4-tetrahydro[1]benzofuro[2,3-c]pyridine] | > 200 °C (dec.) |
| COc1cccc(S(=O)(=O)c2ccc3c4c(oc3c2)C(C)(C)NCC4)c1 (as salt: HCl) [Example 16, 7-[(3-methoxyphenyl)sulfonyl]-1,1-dimethyl-1,2,3,4-tetrahydro[1]benzofuro[2,3-c]pyridine] | 335 °C (dec.) |
| CC(=O)N1CCC2(CC1)NCCc1c2oc2cc(S(=O)(=O)c3cccc(F)c3)ccc12 (as salt: HCl) [Example 41, 1-{7-[(3-fluorophenyl)sulfonyl]-3,4-dihydro-1′H,2H-spiro[1-benzofuro[2,3-c]pyridine-1,4′-piperidin]-1′-yl}ethanone] | 256 °C (dec.) |
| Cc1cccc(S(=O)(=O)c2ccc3c4c(oc3c2)C(C)(C)NCC4)n1 (as salt: HCl) [Example 19, 1,1-dimethyl-7-[(6-methylpyridin-2-yl)sulfonyl]-1,2,3,4-tetrahydro[1]benzofuro[2,3-c]pyridine] | 305 to 310 °C |
